PubChem BioAssay (NCI)
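Each compound was tested at five concentrations against cells in 96-well plates for 48 hours. GI50 marks 50% less growth. Definition used: TGI = concentration required for complete inhibition of growth.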

How the values were obtained:
Assay in all cases: NCI anticancer screen, dose series, 48 h
[1] = tested on: OVCAR-4 ovarian
[2] = tested on: SW-620 colon
[3] = tested on: DMS 114 small cell lung
[4] = tested on: CCRF-CEM leukemia
[5] = tested on: OVCAR-3 ovarian
[6] = tested on: UACC-62 melanoma
[7] = tested on: SK-MEL-28 melanoma
[8] = tested on: KM12 colon
[9] = tested on: M19-MEL melanoma
[10] = tested on: SNB-75 CNS
[11] = tested on: UACC-257 melanoma
[12] = tested on: SF-295 CNS
[13] = tested on: SK-MEL-5 melanoma
[14] = tested on: SNB-78 CNS
[15] = tested on: RXF 393 renal
[16] = tested on: HL-60(TB) leukemia
[17] = tested on: XF 498 CNS
[18] = tested on: MALME-3M melanoma
[19] = tested on: NCI-H226 lung
[20] = tested on: HT29 colon
[21] = tested on: K-562 leukemia
[22] = tested on: MOLT-4 leukemia
[23] = tested on: NCI-H23 lung
[24] = tested on: TK-10 renal
[25] = tested on: HCT-116 colon
[26] = tested on: HCC-2998 colon
[27] = tested on: EKVX NSCLC
[28] = tested on: 786-0 renal
[29] = tested on: DMS 273 small cell lung
[30] = tested on: UO-31 renal
[31] = tested on: SK-OV-3 ovarian
[32] = tested on: HCT-15 colon
[33] = tested on: ACHN renal
[34] = tested on: KM20L2 colon
[35] = tested on: A498 renal
[36] = tested on: NCI-H460 lung
[37] = tested on: CAKI-1 renal
[38] = tested on: U251 CNS
[39] = tested on: M14 melanoma
[40] = tested on: SK-MEL-2 melanoma
[41] = tested on: A549 NSCLC
[42] = tested on: HOP-62 NSCLC
[43] = tested on: DLD-1 colon
[44] = tested on: OVCAR-5 ovarian
[45] = tested on: OVCAR-8 ovarian
[46] = tested on: IGROV1 ovarian
[47] = tested on: SF-539 CNS
[48] = tested on: RPMI-8226 leukemia
[49] = tested on: LXFL 529 NSCLC
[50] = tested on: NCI-H522 lung
[51] = tested on: COLO 205 colon
[52] = tested on: SF-268 CNS
[53] = tested on: HOP-18 NSCLC
[54] = tested on: LOX IMVI melanoma
[55] = tested on: SNB-19 CNS
[56] = tested on: SN12C renal
[57] = tested on: RXF-631 renal
[58] = tested on: HOP-92 NSCLC

Cc1c(C(=O)c2ccccc2C(=O)O)c2ccccc2n1C
TGI [1]: > 100 µM | TGI [2]: > 100 µM | TGI [3]: > 100 µM | TGI [4]: > 100 µM | TGI [5]: > 100 µM | TGI [6]: > 100 µM | TGI [7]: > 100 µM | TGI [8]: > 100 µM | TGI [9]: > 100 µM | TGI [10]: > 100 µM | TGI [11]: > 100 µM | TGI [12]: > 100 µM | TGI [13]: > 100 µM | TGI [14]: > 100 µM | TGI [15]: > 100 µM | TGI [16]: > 100 µM | TGI [17]: > 100 µM | TGI [18]: > 100 µM | TGI [19]: > 100 µM | TGI [20]: > 100 µM | TGI [21]: > 100 µM | TGI [22]: > 100 µM | TGI [23]: > 100 µM | TGI [24]: > 100 µM | TGI [25]: > 100 µM | TGI [26]: > 100 µM | TGI [27]: > 100 µM | TGI [28]: > 100 µM | TGI [29]: > 100 µM | TGI [30]: > 100 µM | TGI [31]: > 100 µM | TGI [32]: > 100 µM | TGI [33]: > 100 µM | TGI [34]: > 100 µM | TGI [35]: > 100 µM | TGI [36]: > 100 µM | TGI [37]: > 100 µM | TGI [38]: > 100 µM | TGI [39]: > 100 µM | TGI [40]: > 100 µM | TGI [41]: > 100 µM | TGI [42]: > 100 µM | TGI [43]: > 100 µM | TGI [44]: > 100 µM | TGI [45]: > 100 µM | TGI [46]: > 100 µM | TGI [47]: > 100 µM | TGI [48]: > 100 µM | TGI [49]: > 100 µM

CC1(C)OC(=O)C=C([O-])O1.CC1(C)OC(=O)C=C([O-])O1.O=S(=O)([O-])c1ccc([O-])c2ncccc12.O=S(=O)([O-])c1ccc([O-])c2ncccc12.[Ti+4]
GI50 [1]: > 100 µM | TGI [1]: > 100 µM | GI50 [50]: 52.4 µM | TGI [50]: > 100 µM | GI50 [51]: > 100 µM | TGI [51]: > 100 µM | GI50 [52]: 52 µM | TGI [52]: > 100 µM | GI50 [2]: > 100 µM | TGI [2]: > 100 µM | GI50 [3]: > 100 µM | TGI [3]: > 100 µM | GI50 [4]: 69.8 µM | TGI [4]: > 100 µM | GI50 [5]: 86.4 µM | TGI [5]: > 100 µM | GI50 [6]: 79.9 µM | TGI [6]: > 100 µM | GI50 [7]: > 100 µM | TGI [7]: > 100 µM | GI50 [8]: > 100 µM | TGI [8]: > 100 µM | GI50 [53]: 26 µM | TGI [53]: > 100 µM | GI50 [9]: > 100 µM | TGI [9]: > 100 µM | GI50 [10]: > 100 µM | TGI [10]: > 100 µM | GI50 [11]: > 100 µM | TGI [11]: > 100 µM | GI50 [54]: 46.7 µM | TGI [54]: > 100 µM | GI50 [12]: > 100 µM | TGI [12]: > 100 µM | GI50 [13]: 92 µM | TGI [13]: > 100 µM | GI50 [14]: > 100 µM | TGI [14]: > 100 µM | GI50 [15]: > 100 µM | TGI [15]: > 100 µM | GI50 [16]: 34.1 µM | TGI [16]: > 100 µM | GI50 [18]: > 100 µM | TGI [18]: > 100 µM | GI50 [19]: > 100 µM | TGI [19]: > 100 µM | GI50 [20]: > 100 µM | TGI [20]: > 100 µM | GI50 [21]: > 100 µM | TGI [21]: > 100 µM | GI50 [22]: 47.8 µM | TGI [22]: > 100 µM | GI50 [23]: > 100 µM | TGI [23]: > 100 µM | GI50 [24]: > 100 µM | TGI [24]: > 100 µM | GI50 [25]: 41.8 µM | TGI [25]: > 100 µM | GI50 [27]: > 100 µM | TGI [27]: > 100 µM | GI50 [28]: > 100 µM | TGI [28]: > 100 µM | GI50 [29]: > 100 µM | TGI [29]: > 100 µM | GI50 [30]: > 100 µM | TGI [30]: > 100 µM | GI50 [31]: > 100 µM | TGI [31]: > 100 µM | GI50 [32]: 99.7 µM | TGI [32]: > 100 µM | GI50 [33]: 50.3 µM | TGI [33]: > 100 µM | GI50 [55]: > 100 µM | TGI [55]: > 100 µM | GI50 [34]: 43.3 µM | TGI [34]: > 100 µM | GI50 [35]: > 100 µM | TGI [35]: > 100 µM | GI50 [36]: 41.8 µM | TGI [36]: > 100 µM | GI50 [56]: > 100 µM | TGI [56]: > 100 µM | GI50 [37]: > 100 µM | TGI [37]: > 100 µM | GI50 [39]: 69.2 µM | TGI [39]: > 100 µM | GI50 [40]: > 100 µM | TGI [40]: > 100 µM | GI50 [41]: 48.6 µM | TGI [41]: > 100 µM | GI50 [42]: 26.3 µM | TGI [42]: 73.1 µM | GI50 [43]: > 100 µM | TGI [43]: > 100 µM | GI50 [44]: 25.9 µM | TGI [44]: 63.1 µM | GI50 [45]: 83.4 µM | TGI [45]: > 100 µM | GI50 [46]: > 100 µM | TGI [46]: > 100 µM | GI50 [47]: 78.5 µM | TGI [47]: > 100 µM | GI50 [48]: > 100 µM | TGI [48]: > 100 µM | GI50 [49]: 67.1 µM | TGI [49]: > 100 µM

CN1c2ccccc2N(C)C2C1N(C)c1ccccc1N2C (centres undefined)
TGI [1]: > 100 µM | TGI [50]: 26 µM | TGI [51]: 29.4 µM | TGI [52]: 46.6 µM | TGI [2]: > 100 µM | TGI [3]: 26 µM | TGI [4]: 9.73 µM | TGI [5]: 50.2 µM | TGI [6]: 24.9 µM | TGI [57]: > 100 µM | TGI [7]: 17.6 µM | TGI [8]: > 100 µM | TGI [9]: 32.7 µM | TGI [10]: 71.1 µM | TGI [11]: > 100 µM | TGI [12]: > 100 µM | TGI [13]: 18.4 µM | TGI [14]: > 100 µM | TGI [15]: 32.6 µM | TGI [16]: 7 µM | TGI [17]: 21.7 µM | TGI [18]: 76.4 µM | TGI [19]: 83.2 µM | TGI [20]: > 100 µM | TGI [21]: > 100 µM | TGI [22]: 9.69 µM | TGI [23]: 74.7 µM | TGI [24]: > 100 µM | TGI [25]: 42.4 µM | TGI [26]: 30.9 µM | TGI [27]: > 100 µM | TGI [28]: > 100 µM | TGI [29]: > 100 µM | TGI [30]: 82.2 µM | TGI [33]: > 100 µM | TGI [55]: 80.2 µM | TGI [34]: > 100 µM | TGI [35]: 84.1 µM | TGI [36]: > 100 µM | TGI [56]: > 100 µM | TGI [37]: > 100 µM | TGI [58]: 52.4 µM | TGI [38]: > 100 µM | TGI [39]: 65 µM | TGI [40]: 69.6 µM | TGI [41]: > 100 µM | TGI [42]: > 100 µM | TGI [43]: 62.6 µM | TGI [44]: > 100 µM | TGI [45]: > 100 µM | TGI [46]: > 100 µM | TGI [47]: 45.8 µM | TGI [48]: 62.9 µM | TGI [49]: > 100 µM
